Source: patent publication US8852895B2, “Macrocyclic derivative and assemblies formed therefrom” (University College Dublin, National University of Ireland, priority 2008, dated 2014)
Values joined by “and” are separate entries in the source; they are usually repeats but may differ in a detail not shown here. Equal entries are not always repeated. Where two headings read alike, the source gives them in different places.

What was measured:
[1] = DLS, 0.1 mg/mL cyclodextrin in water
Procedure: A 50 μL aliquot of the stock solution (0.5 mg of cyclodextrin) was transferred to a glass vial. The solvent was evaporated slowly in order to form a thin film of cyclodextrin on the surface of the glass. Millipore water (5 mL) was then used to hydrate the film giving a cyclodextrin solution with a concentration of 0.1 mg/mL. The vial was capped and placed in an oven for 90 minutes at 60° C. The cyclodextrin solutions were then filtered through a 0.45 μm Gelman Acrodisk syringe filter into a fluorimeter cuvette to remove any particles and macro aggregates. DLS investigations of these solutions were carried out using a Malvern Autosizer 4700 equipped with an Innova 70 laser (488 nm) and a photomultiplier at an angle of 90°.

Cos-7 cells = details: cyclodextrin:DNA mass ratios of 10, 15 and 20, 1 μg DNA, FIG. 3
Procedure: The plasmid DNA used for the transfection studies was the pGL3luc plasmid. This plasmid contains the gene that encodes for the firefly luciferase enzyme which allows measurement of gene expression levels in cells.
The cyclodextrin was dissolved in chloroform to a concentration of 1 mg/mL. A slow stream of nitrogen was passed over the solution to remove solvent. The cyclodextrin was then reconstituted with a plasmid DNA solution to give a final cyclodextrin concentration of 1 mg/mL. The DNA concentration used depended on the ratio of cyclodextrin:DNA being studied. This cyclodextrin:DNA solution was then sonicated for 1 hour to facilitate size reduction.
Cos-7 cells were seeded at a density of 30,000 cells per well and grown in 24 well plates in media for 20-24 hours. Prior to transfection studies, the cells were rinsed with serum-free media and then incubated in serum-free media for 1 hour. […] DNA complexes were prepared in a final volume of 100 μL so that 1 μg of DNA complexed with the vectors at the desired mass ratio. This was then added to 400 μL of serum-free media and cells which was left at 37° C. for 4 hours. […] Luciferase expression was then determined using a luciferase assay kit (Promega USA) and results were expressed as Relative Light Units (RLU) of luciferase per pg of protein (Bradford assay). […]

SMILES: CCCCCCCCOC(=O)CCSCCCO[C@H]1[C@H]2O[C@H]3[C@H](O)[C@@H](OCCCSCCC(=O)OCCCCCCCC)[C@@H](O[C@H]4[C@H](O)[C@@H](OCCCSCCC(=O)OCCCCCCCC)[C@@H](O[C@H]5[C@H](O)[C@@H](OCCCSCCC(=O)OCCCCCCCC)[C@@H](O[C@H]6[C@H](O)[C@@H](OCCCSCCC(=O)OCCCCCCCC)[C@@H](O[C@H]7[C@H](O)[C@@H](OCCCSCCC(=O)OCCCCCCCC)[C@@H](O[C@H]8[C@H](O)[C@@H](OCCCSCCC(=O)OCCCCCCCC)[C@@H](O[C@@H]([C@@H]1O)[C@@H](CSCCN)O2)O[C@@H]8CSCCN)O[C@@H]7CSCCN)O[C@@H]6CSCCN)O[C@@H]5CSCCN)O[C@@H]4CSCCN)O[C@@H]3CSCCN.O=C(O)C(F)(F)F [heptakis[6-(2′-aminoethylthio)-2-O-octyloxycarbonylethylsulfanylpropyl]-β-cyclodextrin trifluoroacetic acid salt]
- Zaverage (nm) ([1]; Day 1, filtered 0.45 μm, angle 90°, trifluoroacetic acid salt): 76 nm and 85 nm
- Polydispersity ([1]; Day 7): 0.251
- Zaverage (nm) ([1]; Day 7): 82 nm
- transfection (luciferase expression) compared with naked DNA and DOTAP (Cos-7 cells): greater than DNA on its own and greater than DOTAP
